This passage reports solubility results from US11351265B2, “Process for formulating an anionic agent” (Dicerna Pharmaceuticals, Inc., priority 2013, dated 2022).

In brackets after ≈: the same amount, converted by molar mass.

The data set in a line: Solubility of cholesterol in ethanol. It counts as physicochemical. The settings on record: organic solvent or mixture, room temperature, absence of other lipids and/or sterols, read-out: solubility limit in ethanol. The text has this: Thus, a process is provided for raising the amount of an original lipid, sterol and/or blend of lipid(s) and/or sterol(s) that may be solubilized in a solvent (e.g., an alcoholic solvent, e.g., ethanol) by pre-mixing other lipid(s), sterol(s) and/or blend of lipid(s) and/or sterol(s), as oils, powders and/or in solvent(s), before adding such a pre-mixture to the original solubility-limited lipid, sterol and/or blend of lipid(s), thereby effectively raising the solubility limit of the original lipid in the solvent. […] Without wishing to be bound by theory, it is believed that the newly discovered ability to provide high concentration solutions of lipids/sterols at such elevated concentrations enhances the homogeneity of a lipid-anionic agent particle population, as compared to the concentrations at which such lipids/sterols are routinely used within the particle formulation process.
The above-described process schematically exemplified in FIG. 1, which is also referred to herein as “2141”, was not only distinguished from other tested processes in the order of addition of DsiRNA-lipid complexes and additional lipids in ethanol, but also was distinguished from other processes by the concentration of lipids and sterols that were solubilized in the additional lipids in ethanol solution. […]

Take `CC(C)CCC[C@@H](C)[C@H]1CC[C@H]2[C@@H]3CC=C4C[C@@H](O)CC[C@]4(C)[C@H]3CC[C@]12C` [cholesterol]: the solubility was 10 to 11 mg/mL (≈ 25.9 to 28.4 mM).

For orientation: solubility means the dissolved amount per volume that the medium holds.
